Target: Cathepsin S (Homo sapiens, UniProt P25774)
Test: Cathepsin S inhibition, fluorogenic peptide substrate kinetic assay
Type: biochemical
Settings: Table II; Cathepsin S inhibition constant, pH5.5; read-out: Ki Cat. S
Summary of the method: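 Reactions were started with 50 μM (final) acetyl-His-Pro-Val-Lys-aminocarbamoylcoumarin, and hydrolysis was followed by fluorescence (ex 380/em 450 nm). Apparent inhibition constants from enzyme progress curves were converted to Ki for competitive inhibitors using substrate concentration and Km.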

Chain of Cathepsin S (P25774 115-331, species assumed): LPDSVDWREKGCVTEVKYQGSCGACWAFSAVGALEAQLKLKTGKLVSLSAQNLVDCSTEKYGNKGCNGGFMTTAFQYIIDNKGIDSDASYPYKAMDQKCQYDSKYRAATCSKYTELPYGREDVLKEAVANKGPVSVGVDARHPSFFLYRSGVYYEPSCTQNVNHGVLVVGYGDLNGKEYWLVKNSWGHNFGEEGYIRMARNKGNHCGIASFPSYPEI

Ki [nM]	Compound
< 100	COc1cccc(C(=O)N[C@@H](CC(C)(C)C)C(=O)N[C@@H](CO)CN2CCc3cc(F)ccc32)c1 [Compound 156, N-{1-(S)-[2-(5-Fluoro-2,3-dihydro-indol-1-yl)-1-(R)-hydroxymethyl-ethylcarbamoyl]-3,3-dimethyl-butyl}-3-methoxy-benzamide]
< 100	C[C@@H](CN1CC(C)(C)c2cc(F)ccc21)NC(=O)[C@H](CC1CCCCC1)NC(=O)C1CCOCC1 [Compound 173, Tetrahydropyran-4-carboxylic acid {2-cyclohexyl-1-(S)-[2-(5-fluoro-3,3-dimethyl-2,3-dihydro-indol-1-yl)-1-(S)-methyl-ethylcarbamoyl]-ethyl}-amide]
< 100	O=C(NCCN1CCc2cc(F)ccc21)[C@H](CC1CCCCC1)NS(=O)(=O)c1ccc(-c2cnco2)cc1 [Compound 246, (S)-3-Cyclohexyl-N-[2-(5-fluoro-2,3-dihydro-indol-1-yl)-ethyl]-2-(4-oxazol-5-yl-benzenesulfonylamino)-propionamide]
< 1000	O=C(NCCN1CCc2cc(F)ccc21)[C@H](CC1CCCCC1)NS(=O)(=O)c1ccsc1 [Compound 248, (S)-3-Cyclohexyl-N-[2-(5-fluoro-2,3-dihydro-indol-1-yl)-ethyl]-2-(thiophene-3-sulfonylamino)-propionamide]
< 1000	COc1cccc(S(=O)(=O)N[C@@H](CC2CCCCC2)C(=O)NCCN2CCc3cc(F)ccc32)c1 [Compound 245, (S)-3-Cyclohexyl-N-[2-(5-fluoro-2,3-dihydro-indol-1-yl)-ethyl]-2-(3-methoxy-benzenesulfonylamino)-propionamide]
< 100	C[C@@H](CN1CCc2cc(F)ccc21)NC(=O)[C@H](CC1CCCCC1)NC(=O)OCc1ccccc1 [Compound 174, {2-Cyclohexyl-1-(S)-[2-(5-fluoro-2,3-dihydro-indol-1-yl)-1-(S)-methyl-ethylcarbamoyl]-ethyl}-carbamic acid benzyl ester]
< 100	COc1cccc(C(=O)N[C@@H](CC2CCCCC2)C(=O)N[C@@H](CO)CN2CCc3cc(F)ccc32)c1 [Compound 150, N-{2-Cyclohexyl-1-(S)-[2-(5-fluoro-2,3-dihydro-indol-1-yl)-1-(R)-hydroxymethyl-ethylcarbamoyl]-ethyl}-3-methoxy-benzamide]
< 100	C[C@@H](CN1CC(C)(C)c2cc(F)ccc21)NC(=O)[C@H](CC1CCCCC1)NC(=O)[C@H]1CCCO1 [Compound 273, Tetrahydrofuran-2-(R)-carboxylic acid {2-cyclohexyl-1-(S)-[2-(5-fluoro-3,3-dimethyl-2,3-dihydro-indol-1-yl)-1-(S)-methyl-ethylcarbamoyl]-ethyl}-amide]
< 100	C[C@@H](CNc1ccc(OC(F)(F)F)cc1)NC(=O)[C@H](CC(C)(C)C)NC(=O)c1ccc(-c2cccc(F)c2)o1 [Compound 127, 5-(3-Fluoro-phenyl)-furan-2-carboxylic acid {3,3-dimethyl-1-(S)-[1-(S)-methyl-2-(4-trifluoromethoxy-phenylamino)-ethylcarbamoyl]-butyl}-amide]
< 100	C[C@@H](CN1CCc2cc(F)ccc21)NC(=O)[C@H](CC(C)(C)C)NC(=O)C1CC1 [Compound 177, Cyclopropanecarboxylic acid {1-(S)-[2-(5-fluoro-2,3-dihydro-indol-1-yl)-1-(S)-methyl-ethylcarbamoyl]-3,3-dimethyl-butyl}-amide]
< 100	Cc1nc(-c2ccc(S(=O)(=O)N[C@@H](CC3CCCCC3)C(=O)NCCN3CCc4cc(F)ccc43)s2)cs1 [Compound 237, (S)-3-Cyclohexyl-N-[2-(5-fluoro-2,3-dihydro-indol-1-yl)-ethyl]-2-[5-(2-methyl-thiazol-4-yl)-thiophene-2-sulfonylamino]-propionamide]
< 100	C[C@@H](CNc1ccc(S(C)(=O)=O)cc1)NC(=O)[C@H](CC(C)(C)C)NC(=O)c1ccc(-c2cccc(F)c2)o1 [Compound 129, 5-(3-Fluoro-phenyl)-furan-2-carboxylic acid {1-(S)-[2-(4-methanesulfonyl-phenylamino)-1-(S)-methyl-ethylcarbamoyl]-3,3-dimethyl-butyl}-amide]

The next lines start with the compound.

Compound	Ki [nM]
COc1cccc(C(=O)N[C@@H](CCC2CCCCC2)C(=O)NCCN2CCc3cc(C#N)ccc32)c1 [Compound 12, (S)-N-{3-Cyclohexyl-1-[2-(5-cyano-2,3-dihydro-indol-1-yl)-ethylcarbamoyl]-propyl}-3-methoxy-benzamide]	< 10000
O=C(N[C@@H](CC1CCCCC1)C(=O)NCCN1CCc2cc(F)ccc21)c1ccc(-c2ccccc2)o1 [Compound 75, 5-Phenyl-furan-2-carboxylic acid (S)-{2-cyclohexyl-1-[2-(5-fluoro-2,3-dihydro-indol-1-yl)-ethylcarbamoyl]-ethyl}-amide]	< 100
CNS(=O)(=O)c1ccc(NC[C@H](C)NC(=O)[C@H](CC2CCCCC2)NC(=O)c2ccc(-c3cccc(F)c3)o2)cc1 [Compound 118, 5-(3-Fluoro-phenyl)-furan-2-carboxylic acid {2-cyclohexyl-1-(S)-[1-(S)-methyl-2-(4-methylsulfamoyl-phenylamino)-ethylcarbamoyl]-ethyl}-amide]	< 100
C[C@@H](CNc1ccc(SC(F)(F)F)cc1)NC(=O)[C@H](CC1CCCCC1)NC(=O)c1ccc(-c2cccc(F)c2)o1 [Compound 119, 5-(3-Fluoro-phenyl)-furan-2-carboxylic acid {2-cyclohexyl-1-(S)-[1-(S)-methyl-2-(4-trifluoromethylsulfanyl-phenylamino)-ethylcarbamoyl]-ethyl}-amide]	< 100
C[C@@H](CNc1cccc(C#N)c1)NC(=O)[C@H](CC1CCCCC1)NC(=O)c1ccc(-c2cccc(F)c2)o1 [Compound 100, 5-(3-Fluoro-phenyl)-furan-2-carboxylic acid {1-(S)-[2-(3-cyano-phenylamino)-1-(S)-methyl-ethylcarbamoyl]-2-cyclohexyl-ethyl}-amide]	< 100
C[C@@H](CNc1ccc(O)cc1)NC(=O)[C@H](CC1CCCCC1)NC(=O)c1ccc(-c2cccc(F)c2)o1 [Compound 125, 5-(3-Fluoro-phenyl)-fuiran-2-carboxylic acid {2-cyclohexyl-1-(S)-[2-(4-hydroxy-phenylamino)-1-(S)-methyl-ethylcarbamoyl]-ethyl}-amide]	< 100
O=C(N[C@@H](CC1CCCCC1)C(=O)NCCN1CCc2cc(F)ccc21)c1ccco1 [Compound 9, Furan-2-carboxylic acid (S)-{2-cyclohexyl-1-[2-(5-fluoro-2,3-dihydro-indol-1-yl)-ethylcarbamoyl]-ethyl}-amide]	< 100
COc1cccc(C(=O)NC(C(=O)N[C@@H](COCc2ccccc2)CN2CCc3cc(F)ccc32)c2ccccc2)c1 (mixture of isomers) [Compound 36, N-(S)-{[1-(R)-Benzyloxymethyl-2-(5-fluoro-2,3-dihydro-indol-1-yl)-ethylcarbamoyl]-phenyl-methyl}-3-methoxy-benzamide]	< 100
C[C@@H](CNc1ccc(OC(F)(F)F)cc1)NC(=O)[C@H](CC1CCCCC1)NC(=O)c1ccc(-c2ccc(F)cc2)o1 [Compound 103, 5-(4-Fluoro-phenyl)-furan-2-carboxylic acid {2-cyclohexyl-1-(S)-[1-(S)-methyl-2-(4-trifluoromethoxy-phenylamino)-ethylcarbamoyl]-ethyl}-amide]	< 100

— patent publication US20040248887A1, “Inhibitors of cathepsin S” (IRM LLC, priority 2003, published 2004)
